Legend:
[1] = Inhibition of Mycobacterium tuberculosis DNA gyrase assessed as reduction in DNA supercoiled DNA formation incubated for 30 mins by […] analysis
NFF [2] = assay: Cytotoxicity against human NFF cells assessed as reduction in cell viability at 1 mM after 48 hrs by resazurin dye based assay relative to control; settings: 1000 µM
[3] = Selectivity index, ratio of IC50 for cytotoxicity against human NFF cells to […] for antiproliferative activity against mouse NS-1 cells
[4] = Antiproliferative activity against mouse NS-1 cells assessed as reduction in cell viability after 48 hrs by resazurin dye based assay; format: functional; settings: NS1, 48 h
NFF [5] = assay: Cytotoxicity against human NFF cells assessed as reduction in cell viability after 48 hrs by resazurin dye based assay

Molecule `Cc1cc2c(c(O)c1-c1c(C)cc(O)c3c1C(=O)C=CC3=O)C(=O)C=CC2=O` has an IC50 [1] of 100 µM.
With `Cc1cc(O)c2c(c1)C(=O)C=C(c1c(C)cc(O)c3c1C(=O)C=CC3=O)C2=O` [NEODIOSPYRIN] the IC50 [1] was 50 µM.
Work on `O=C(O)c1cn(C2CC2)c2cc(N3CCNCC3)c(F)cc2c1=O` [CIPROFLOXACIN] yielded an IC50 [1] of 10 µM.
In the case of `O=c1[nH]cc(F)c(=O)[nH]1` [FLUOROURACIL], the Activity (NFF [2]) is reported as 13%, the “Ratio IC50” value [3] is reported as greater than 352 and the IC50 [4] is reported as 2.8 µM.
For `Cc1cc(O)c2c(c1)C(=O)C=C(c1c(C)cc3c(c1O)C(=O)C=CC3=O)C2=O`, the IC50 (NFF [5]) was 31.8 µM, the “Ratio IC50” value [3] was 14 and the IC50 [4] was 1.8 µM.
For `COc1cc(C)cc2c1C(=O)C=C(c1c(C)cc3c(c1OC)C(=O)C=CC3=O)C2=O`, the IC50 (NFF [5]) was 25.7 µM, the “Ratio IC50” value [3] was 31 and the IC50 [4] was 0.8 µM.
For `Cc1cc(O)c2c(c1)C(=O)C=CC2=O` [RAMENTACEONE], the IC50 (NFF [5]) was 7.6 µM, the “Ratio IC50” value [3] was 15 and the IC50 [4] was 0.5 µM.
For `Cc1cc(O)c2c(c1)C(=O)C(c1c(C)cc3c(c1O)C(=O)C=CC3=O)=CC2=O` [DIOSPYRIN], the IC50 (NFF [5]) was 5.8 µM, the IC50 [1] was 15 µM and the “Ratio IC50” value [3] was 10. It also gave an IC50 [4] of 0.8 µM.

Reference: ChEMBL document CHEMBL4715879, “Total Synthesis of the Antitumor-Antitubercular 2,6'-Bijuglone Natural Product Diospyrin and Its 3,6'-Isomer” (J Nat Prod, 2020)
